In ChEMBL document CHEMBL5236569, “Emodin lows NPC1L1-mediated cholesterol absorption as an uncompetitive inhibitor” (2022):
Activity calls are given as the source filed them. The calls are words filed in the database; no cut-off is given here.

Columns and labels:
[1] = molecular target: T1, NPC1-like intracellular cholesterol transporter 1 (Homo sapiens) (UniProt Q9UHC9); experiment: […] inhibition of NPC1L1 (unknown origin) assessed as decrease in Vmax at upto 150 uM by Lineweaver-burk double inverse plot analysis
T1 sequence (whole entry): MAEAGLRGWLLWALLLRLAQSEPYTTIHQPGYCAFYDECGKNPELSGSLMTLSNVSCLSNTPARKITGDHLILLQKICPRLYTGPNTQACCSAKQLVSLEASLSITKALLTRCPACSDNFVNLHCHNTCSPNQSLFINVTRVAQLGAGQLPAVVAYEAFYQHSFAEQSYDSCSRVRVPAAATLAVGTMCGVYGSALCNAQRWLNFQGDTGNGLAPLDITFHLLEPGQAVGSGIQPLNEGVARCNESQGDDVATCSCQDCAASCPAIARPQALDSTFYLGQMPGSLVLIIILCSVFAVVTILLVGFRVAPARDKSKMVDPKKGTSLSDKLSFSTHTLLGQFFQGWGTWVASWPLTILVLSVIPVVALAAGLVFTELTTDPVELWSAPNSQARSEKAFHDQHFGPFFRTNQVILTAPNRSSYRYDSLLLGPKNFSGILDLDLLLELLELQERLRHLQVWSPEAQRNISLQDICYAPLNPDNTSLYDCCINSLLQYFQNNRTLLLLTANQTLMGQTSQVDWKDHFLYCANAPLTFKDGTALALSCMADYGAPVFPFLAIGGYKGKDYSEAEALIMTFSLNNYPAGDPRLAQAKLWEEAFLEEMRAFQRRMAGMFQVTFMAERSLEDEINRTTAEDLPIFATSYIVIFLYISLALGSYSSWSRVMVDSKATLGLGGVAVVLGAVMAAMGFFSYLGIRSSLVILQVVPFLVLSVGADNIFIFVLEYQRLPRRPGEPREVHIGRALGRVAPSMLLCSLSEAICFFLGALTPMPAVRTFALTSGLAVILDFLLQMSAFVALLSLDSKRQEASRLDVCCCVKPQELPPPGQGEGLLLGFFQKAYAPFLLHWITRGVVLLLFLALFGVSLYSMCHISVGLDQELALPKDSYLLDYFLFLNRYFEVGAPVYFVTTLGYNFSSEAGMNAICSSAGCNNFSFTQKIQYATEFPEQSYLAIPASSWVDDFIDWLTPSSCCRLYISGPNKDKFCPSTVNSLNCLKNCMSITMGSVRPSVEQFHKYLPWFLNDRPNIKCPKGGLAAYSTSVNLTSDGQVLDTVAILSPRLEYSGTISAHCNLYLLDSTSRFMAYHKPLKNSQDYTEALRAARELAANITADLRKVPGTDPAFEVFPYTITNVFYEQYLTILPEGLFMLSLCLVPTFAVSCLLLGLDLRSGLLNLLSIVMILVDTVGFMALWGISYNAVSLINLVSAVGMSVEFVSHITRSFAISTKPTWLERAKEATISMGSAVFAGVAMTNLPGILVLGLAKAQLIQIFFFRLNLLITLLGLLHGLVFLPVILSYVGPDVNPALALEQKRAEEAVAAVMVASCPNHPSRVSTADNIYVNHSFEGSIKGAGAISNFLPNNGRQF

[2] = Inhibition of cholesterol uptake in human Caco-2 cells at 50 uM relative to control; type: functional
[3] = Inhibition of cholesterol uptake in human Caco-2 cells at 75 uM relative to control; type: functional
[4] = Inhibition of cholesterol uptake in human HepG2 cells at 100 uM relative to control; type: functional
[5] = molecular target: T1, NPC1-like intracellular cholesterol transporter 1 (Homo sapiens); experiment: […] inhibition of NPC1L1 (unknown origin) assessed as decrease in Km at upto 150 uM by Lineweaver-burk double inverse plot analysis
[6] = Inhibition of cholesterol uptake in human HepG2 cells at 75 uM relative to control; type: functional
[7] = Inhibition of cholesterol uptake in human Caco-2 cells at 25 uM relative to control; type: functional
HepG2 = experiment: Effect on NPC1L1 expression in human HepG2 cells at 1 to 100 uM incubated for 24 hrs; type: functional, cell-based; settings: dose 1-100 µM
[8] = Inhibition of cholesterol uptake in human HepG2 cells at 25 uM relative to control; type: functional
[9] = Inhibition of cholesterol uptake in human HepG2 cells at 12.5 uM relative to control; type: functional
[10] = molecular target: T1, NPC1-like intracellular cholesterol transporter 1 (Homo sapiens); experiment: Inhibition of NPC1L1in human HepG2 cells assessed as reduction in intracellular cholesterol content incubated for 60 mins by filipin dye based confocal microscopy analysis; type: cell-based
[11] = Inhibition of cholesterol uptake in human HepG2 cells at 50 uM relative to control; type: functional
[12] = Inhibition of cholesterol uptake in human Caco-2 cells at 12.5 uM relative to control; type: functional
[13] = molecular target: T1, NPC1-like intracellular cholesterol transporter 1 (Homo sapiens); experiment: Inhibition of NPC1L1in human HepG2 cells assessed as increase in intracellular cholesterol content incubated for 60 mins by filipin dye based confocal microscopy analysis; type: cell-based
[14] = Inhibition of cholesterol uptake in human Caco-2 cells at 100 uM relative to control; type: functional

SMILES | Activity [1] | inhibition at 50 µM [2] | inhibition at 75 µM [3] | inhibition at 100 µM [4] | Activity [5] | inhibition at 75 µM [6] | inhibition at 25 µM [7] | Activity (HepG2) | inhibition at 25 µM [8] | inhibition at 12.5 µM [9] | Activity [10] | inhibition at 50 µM [11] | inhibition at 12.5 µM [12] | Activity [13] | inhibition at 100 µM [14]
Cc1cc(O)c2c(c1)C(=O)c1cc(O)cc(O)c1C2=O [EMODIN] | Active | 32.3% | 28% | 27% | Active | 31.3% | 39.6% | Active | 41.6% | 52.6% | Active | 33.6% | 44.3% | Active | 29%
O=C1[C@H](CC[C@H](O)c2ccc(F)cc2)[C@@H](c2ccc(O)cc2)N1c1ccc(F)cc1 [EZETIMIBE] | – | – | – | 48.3% | – | – | – | – | – | – | inactive | – | – | Active | 70%
